Consider 9 compounds from EP0558569B1, “MEDICAMENTS CONTAINING SULPHONAMIDES, NOVEL SULPHONAMIDES AND PROCES FOR PRODUCING THEM” (BOEHRINGER MANNHEIM GMBH, priority 1990, dated 1992).

In test [1] the test system is Plasma-LDL. Nature of the test: Stabilisation of plasma LDL against Cu(II) oxidation: prolongation of the lag phase of diene formation (A 234). It counts as biochemical, human. Conditions: 3 Moleküle Testsubstanz pro LDL-Partikel; LDL 125 »g Protein/ml, 10 »M CuCl₂, pH 8, 42° C. The protocol: (§1) e) In-vitro-Wirkung der Verbindungen der Formel I und I' Hemmung der Cholesterinesterbildung in Makrophagen (nach Huber et al. (1990) Free Rad. Res. Comms. 8, 167-173): Humanplasma-LDL wurde durch sequenzielle Ultrazentrifugation bei präselektierten Dichten aus dem Plasma gesunder männlicher Nichtraucher isoliert und für 5 h bei 37° C in F-10 Medium + 1 »M Cu(II) zur Depletion seiner lipophilen Antioxidantien inkubiert. Die Bildung von Cholesterinestern in P 388 D.1 Makrophagen unter Einfluß von konditioniertem human Plasma-LDL wurde nach 18 h Inkubation der Zellen (2 x 10⁶/ml) in F-10 Medium + 1 » M Cu(II) + 50 »g/ml LDL + 5 % FCS nach Extraktion der Neutralfette dünnschichtchromatographisch gemessen. […] Stabilisierung von Plasma-LDL (nach Huber et al. (1990) Free Rad. Res. Comms. 8, 167-173): LDL (125 »g Protein/ml) wurde in 20 mM Tris-Cl pH 8, 150 mM NaCl, 10 »M CuCl₂ mit und ohne Testverbindung (gelöst in Äthanol, Äthanolendkonzentration 0,5 %) bei 42° C oxidiert. Es wurden jeweils 3 Moleküle Testsubstanz pro LDL-Partikel eingesetzt. Die Oxidation wurde kontinuierlich photometrisch bei A 234 durch die Messung der Dienbildung verfolgt. Die sogenannte "lag Phase" ist als dasjenige Zeitintervall definiert, das sich aus dem Schnittpunkt der Tangente der Kurve während der Propagationsreaktion der Lipidperoxidation und er Zeitachse ergibt. […] Hemmung der Sojabohnenlipoxygenase (15-Lipoxygenase) am LDL-Substrat (nach Cathcart et al. (1991) J. Lipid Res. 32, 63-70): LDL (100 »g Protein/ml) wurde in 20 mM Tris-Cl pH 8,3, 150 mM NaCl mit und ohne Testsubstanz (gelöst in Äthanol, Endkonzentration des Äthanol 0,5 %) mit 5000 U/2ml Sojabohnen-Lipoxygenase (Sigma, München) bei 37° C inkubiert: Die Oxidation wurde durch Messung der Diene kontinuierlich bei A 234 verfolgt. Als IC₅₀-Wert wird diejenige Konzentration der Testverbindung angegeben, die zur Halbierung der im Testansatz über die Zeit linearen Dienbildung führt.

Test [2] has as its system Ratten mit diätetisch induzierter Hypercholesterinämie. Nature of the test: Dose-dependent effect on serum cholesterol in rats with diet-induced hypercholesterolaemia. It counts as in vivo, SD Ratten. Conditions: for S-Cholesterin: 4 days on 2 % Cholesterin/0,2 % Cholsäure diet, measured day 5, Mittelwerte +/- SEM, n=6; for % Kontrollen: S-Cholesterin as % of controls (dose 0 = 100). The text has this: Die Verbindungen der Formel I bzw. I' sind Antioxidantien-Sulfonamidanaloga, die Hemmstoffe der Cholesterinesterbildung in der Arterienwand zur Behandlung der Arteriosklerose darstellen. a) Die Zytogenese der Atheromatose Hypercholesterinämie und Syndrome von Hypercholesterinämie/Hypertriglyceridämie Syndrome sind Risikofaktoren für die vorzeitige Arteriosklerose. In der Pathogenese der arteriosklerotischen Läsion selbst spielt die oxidative Modifikation von Lipoproteinen in der Arterienwand eine wichtige Rolle. Sie führt zur Freisetzung von chemotaktisch wirksamen Mediatoren und zur Wanderung von makrophagozytären Zellen aus dem Blut in die Arterienwand. In der Gefäßwand nehmen Makrophagen besonders intensiv oxidativ verändertes low-density lipoprotein (LDL) unreguliert auf. Die damit verbundene Erhöhung des Cholesterininfluxes und die Belastung des zellulären Stoffwechsels führt zu einem Anstieg des intrazellulären Cholesterins, einer Steigerung der Reacylierung des Cholesterins und Speicherung der Cholesterinester, die wiederum zur Ausbildung großer cytoplasmatischer Cholesterinesterdepots und zur Degeneration dieser Makrophagen ("Schaumzellen") führen. Die Schaumzellen sind das zelluläre Substrat des Atheroms und verursachen die makroskopisch sichtbaren Fettstreifen, aus denen sich dann die fibrösen Plaqueläsionen bei Fortschreiben der Erkrankung entwickeln. b) Die Grundlagen für eine antiatherosklerotische Therapie bei Fettstoffwechselstörungen Eine an die Kausalzusammenhänge orientierte antiatherosklerotische Therapie fußt idealerweise auf mindestens drei Säulen: 1. einer Senkung pathologisch erhöhter Lipidspiegel im Plasma durch Diät und/oder Pharmaka, 2. einem wirksamen Antioxidantienschutz besonders des stark atherogenen LDL zur Verminderung des oxidativen LDL-Katabolismus im Atherom und 3. einer Hemmung der Cholesterinesterbildung in den Schaumzellen der fettstreifigen Frühläsionen. Einige Senker des Serum-Cholesterins wirken, indem sie den hepatischen Pool des freien Cholesterins kontrahieren und den Katabolismus des atherogenen LDL-Cholesterins erhöhen: Ionenaustauscher interferieren z. B. mit dem enterhepatischen Cholesterinkreislauf, führen zur Depletion der Gallensäuren in den Hepatozyten und stimulieren die LDL-Cholesterinaufnahme aus dem Plasmakompartment durch eine vermehrte hepatische Aufnahme von Cholesterin über LDL und die hepatischen Apo B,E-Rezeptoren (LDL-Rezeptoren). Ähnlich wirken die Cholesterinsynthese-blocker, z. B. Lovastatin. Sie vermindern das hepatische Cholesterin und bedingen ebenfalls eine gesteigerte Aufnahme von LDL-Cholesterin aus dem Plasma über eine Vermehrung der LDL-Rezeptoren. Auch Hemmer der Cholesterinresorption bedingen eine Absenkung des hepatischen Cholesterinpools, indem sie die exogene diätetische Belastung durch Cholesterin reduzieren. Beispiele hierfür sind die sogenannten Acyl CoA: cholesterinacyltransferase (ACAT)-Hemmer, die in den Enterozyten den Cholesterinefflux via Chylomikronen durch die Hemmung der Veresterung freien Cholesterins unterbinden. In der Leber wird durch diese Hemmer der Cholesterinesterbildung zusätzlich das freie Cholesterin erhöht und die endogene hepatische Cholesterinbiosynthese durch Endprodukt-Hemmung indirekt gehemmt. In den Schaumzellen des Atheroms wird durch die Blockade der Cholesterinesterbildung erhöht freies Cholesterin in den "Reverse Cholesterol Transport pathway" der high-density lipoproteins (HDL) eingebracht, daraus entsteht ein zusätzlicher direkter antiatherogener Effekt. Antioxidantien sind Substanzen, die - allgemein gesehen - eine erhebliche Verzögerung der oxidativen Vorgänge bei einem zu schützenden Produkt bewirken. […] Es ist ein sterisch gehindertes Alkylphenol, das im LDL akkumuliert. […] Methode: 220-250 g schwere SD Ratten erhielten eine Standarddiät, die mit 2 % Cholesterin/0,2 % Cholsäure angereichert wurde, über 4 Tage. […]

Test [3] has as its system P 388 D.1 Makrophagen. Nature of the test: Inhibition of cholesterol ester formation in macrophages under conditioned human plasma LDL (after Huber et al. 1990). It is filed as cell-based. Conditions: for inhibition at 10 µM / IC50: Mus musculus, P388D1, 18 h; for inhibition at 10 µM: read-out: Hemmung der Cholesterinesterbildung in Macrophagen (P388D.1) 10 »M %; for IC50: read-out: Hemmung der Cholesterinesterbildung in Macrophagen (P388D.1) IC₅₀. The procedure: as §1

Molecules are shown by their SMILES.

With `CC(C)(C)c1cc(CCNS(=O)(=O)c2ccc(F)cc2)cc(C(C)(C)C)c1O` [Beispiel 5.28, 2-[4-Fluorbenzolsulfo-(3,5-di-tert.butyl-4-hydroxy)]-phenethylamid], the “Stabilisierung von Plasma LDL: Verlängerung d. "lag-Phase" %” value in test [1] was 25%. Also, the S-Cholesterin was 187 +/- 23 mg % in test [2] (5 mg/kg/d by gavage in 2 ml Pflanzenöl), 120 +/- 15 mg % in test [2] (15 mg/kg/d by gavage in 2 ml Pflanzenöl), 114 +/- 14 mg % in test [2] (50 mg/kg/d by gavage in 2 ml Pflanzenöl) and 84 +/- 8 mg % in test [2] (100 mg/kg/d by gavage in 2 ml Pflanzenöl). Besides, the “% Kontrollen” value was 75% in test [2] (5 mg/kg/d), 48% in test [2] (15 mg/kg/d), 46% in test [2] (50 mg/kg/d) and 33% in test [2] (100 mg/kg/d). Further, the inhibition at 10 µM in test [3] was determined as 92.6%. Also, the IC50 in test [3] was 1200 nM.

`CCCCS(=O)(=O)NCCCc1cc(C(C)(C)C)c(O)c(C(C)(C)C)c1` [Beispiel 5.19]: the inhibition at 10 µM in test [3] is 43.8%.

For `CC(C)(C)c1cc(CNS(=O)(=O)c2ccc(Cl)cc2)cc(C(C)(C)C)c1O` [Beispiel 2, 4-Chlorbenzolsulfo-(3,5-di-tert.butyl-4-hydroxy)benzylamid], the “Stabilisierung von Plasma LDL: Verlängerung d. "lag-Phase" %” value in test [1] was 44%. In addition, in test [3], the inhibition at 10 µM was found to be 78.7% and the IC50 was found to be 2500 nM.

`CC(C)(Sc1cc(C(C)(C)C)c(O)c(C(C)(C)C)c1)Sc1cc(C(C)(C)C)c(O)c(C(C)(C)C)c1` [Probucol, reference compound]: the “Stabilisierung von Plasma LDL: Verlängerung d. "lag-Phase" %” value in test [1] is listed as 10%. Also, the “Hemmung der Cholesterbildung” value in test [3] (reference substance at 10 »M, n=7, printed as positive inhibition) was 25-42%.

Regarding `CN(Cc1cc(C(C)(C)C)c(O)c(C(C)(C)C)c1)S(=O)(=O)c1ccc(Cl)cc1` [Beispiel 3, N-Methyl-4-chlorbenzolsulfo-(3,5-di-tert.butyl-4-hydroxy)benzylamid], in test [1], the “Stabilisierung von Plasma LDL: Verlängerung d. "lag-Phase" %” value was determined as 40%. Moreover, the inhibition at 10 µM in test [3] came out at 54.9%.

Turning to `CC(C)c1cc(C(C)C)c(S(=O)(=O)NCCc2cc(C(C)(C)C)c(O)c(C(C)(C)C)c2)c(C(C)C)c1` [Beispiel 5.17], the “Stabilisierung von Plasma LDL: Verlängerung d. "lag-Phase" %” value in test [1] turned out to be 50%. Moreover, the inhibition at 10 µM in test [3] is 78%.

In the case of `CC(Cc1cc(C(C)(C)C)c(O)c(C(C)(C)C)c1)NS(=O)(=O)C(C)C` (stereo not drawn) [Beispiel 5.31], in test [1], the “Stabilisierung von Plasma LDL: Verlängerung d. "lag-Phase" %” value was found to be 18%. Besides, the inhibition at 10 µM in test [3] is 33.9%.

For `CC(C)c1cc(C(C)C)c(S(=O)(=O)NCc2cc(C(C)(C)C)c(O)c(C(C)(C)C)c2)c(C(C)C)c1` [Beispiel 5.10, 2,4,6-tris-Isopropyl-benzolsulfo-(3,5-di-tert.butyl-4-hydroxy)benzylamid], the “Stabilisierung von Plasma LDL: Verlängerung d. "lag-Phase" %” value in test [1] came out at 99%. Besides, in test [3], the inhibition at 10 µM was found to be 60.3% and the IC50 amounted to 7000 nM.

As for `CC(C)(C)c1cc(CCCNS(=O)(=O)c2ccc(Cl)cc2)cc(C(C)(C)C)c1O` [Beispiel 4b], the inhibition at 10 µM in test [3] came out at 49.2%.
